According to ChEMBL document CHEMBL3632621, “Conformationally restricted κ-opioid receptor agonists: Synthesis and pharmacological evaluation of diastereoisomeric and enantiomeric decahydroquinoxalines” (Bioorg Med Chem Lett, 2015):

How the values were obtained:
Mu-type opioid receptor = Mu-type opioid receptor (Cavia porcellus, UniProt P97266); experiment: Displacement of [3H]-DAMGO from mu opioid receptor in guinea pig brain membrane after 120 mins by scintillation counting; assay type: cell membranes
Sequence of Mu-type opioid receptor (P97266 whole entry): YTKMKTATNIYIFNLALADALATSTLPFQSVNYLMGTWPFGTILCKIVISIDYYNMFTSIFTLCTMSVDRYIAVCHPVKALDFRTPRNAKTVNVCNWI

[1] = biological target: T1, Kappa-type opioid receptor (Homo sapiens, UniProt P41145); experiment: Binding affinity to kappa opioid receptor (unknown origin)
T1 sequence (P41145 whole entry): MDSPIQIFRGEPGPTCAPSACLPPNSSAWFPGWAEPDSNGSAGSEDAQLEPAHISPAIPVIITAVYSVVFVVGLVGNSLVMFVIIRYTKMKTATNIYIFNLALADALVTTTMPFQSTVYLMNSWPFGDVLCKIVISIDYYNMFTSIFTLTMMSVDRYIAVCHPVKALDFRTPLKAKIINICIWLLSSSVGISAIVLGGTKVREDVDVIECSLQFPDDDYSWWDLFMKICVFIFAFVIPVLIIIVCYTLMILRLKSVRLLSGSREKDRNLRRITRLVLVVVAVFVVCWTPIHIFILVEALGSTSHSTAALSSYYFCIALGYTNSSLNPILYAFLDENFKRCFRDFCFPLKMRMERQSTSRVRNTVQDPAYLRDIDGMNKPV

[2] = biological target: Kappa-type opioid receptor (Cavia porcellus, UniProt P41144); experiment: Displacement of [3H]-U-69593 from kappa opioid receptor in guinea pig brain membrane after 120 mins by scintillation counting; assay type: cell membranes
Sequence of Kappa-type opioid receptor (Cavia porcellus, UniProt P41144) (P41144 whole entry): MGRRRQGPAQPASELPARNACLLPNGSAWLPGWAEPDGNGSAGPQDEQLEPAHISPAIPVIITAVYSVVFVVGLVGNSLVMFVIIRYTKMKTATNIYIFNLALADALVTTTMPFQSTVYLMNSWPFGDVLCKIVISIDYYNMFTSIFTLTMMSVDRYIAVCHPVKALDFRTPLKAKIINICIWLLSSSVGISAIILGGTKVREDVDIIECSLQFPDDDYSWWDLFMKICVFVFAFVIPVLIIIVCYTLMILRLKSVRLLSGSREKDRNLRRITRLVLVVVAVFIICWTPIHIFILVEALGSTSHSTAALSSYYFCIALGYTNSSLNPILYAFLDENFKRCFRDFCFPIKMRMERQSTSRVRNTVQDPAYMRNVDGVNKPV

[3] = biological target: Delta-type opioid receptor (Rattus norvegicus, UniProt P33533); experiment: Displacement of [3H]-DPDPE from delta opioid receptor in rat brain membrane after 120 mins by scintillation counting; assay type: cell membranes
Sequence of Delta-type opioid receptor (P33533 whole entry): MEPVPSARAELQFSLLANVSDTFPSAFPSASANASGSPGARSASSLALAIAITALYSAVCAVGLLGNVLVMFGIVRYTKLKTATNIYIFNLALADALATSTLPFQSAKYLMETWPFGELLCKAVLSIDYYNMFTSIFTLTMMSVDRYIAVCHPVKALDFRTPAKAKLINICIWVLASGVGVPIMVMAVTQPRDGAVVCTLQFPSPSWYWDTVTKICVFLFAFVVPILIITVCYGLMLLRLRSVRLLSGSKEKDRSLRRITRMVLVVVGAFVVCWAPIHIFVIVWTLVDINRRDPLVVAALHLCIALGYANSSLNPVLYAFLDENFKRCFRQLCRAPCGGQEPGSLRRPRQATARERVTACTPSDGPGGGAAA

[4] = biological target: T1, Kappa-type opioid receptor; experiment: Intrinsic activity at kappa opioid receptor in human HEK293 cells at 100 nM after 30 mins by [35S]GTPgammaS binding assay relative to U-69593; assay type: functional, cell-based

Structure (SMILES)	Ki (Mu-type opioid receptor) [nM]	also measured
COC(=O)N1CCN(C(=O)Cc2ccc(Cl)c(Cl)c2)[C@H]2[C@@H](N3CCCC3)CCC[C@@H]21 (stereo in doubt)	343	
COC(=O)N1CCN(C(=O)Cc2ccc(Cl)c(Cl)c2)[C@@H]2[C@H](N3CCCC3)CCC[C@H]21 (stereo in doubt)	118	
COC(=O)N1CCN(C(=O)Cc2ccc(Cl)c(Cl)c2)[C@H]2[C@H](N3CCCC3)CCC[C@H]21	544	
COC(=O)N1CCN(C(=O)Cc2ccc(Cl)c(Cl)c2)[C@H]2[C@H](N3CCCC3)CCC[C@H]21 (racemic)	113	
COC(=O)N1CCN(C(=O)Cc2ccc(Cl)c(Cl)c2)[C@H](CN2CCCC2)C1		Ki [1]: 360 nM; Ki [2]: 0.36 nM
COC(=O)N1CCN(C(=O)Cc2ccc(Cl)c(Cl)c2)[C@@H]2[C@@H](N3CCCC3)CCC[C@@H]21	43	
CN(C(=O)/C=C/c1ccoc1)[C@@H]1CC[C@@]2(O)[C@H]3Cc4ccc(O)c5c4[C@@]2(CCN3CC2CC2)[C@H]1O5 [NALFURAFINE]		Ki [3]: 0.37 nM; Activity [4]: 100%
COC(=O)N1CCN(C(=O)Cc2ccc(Cl)c(Cl)c2)[C@H]2[C@H](N3CCCC3)CCC[C@@H]21 (stereo in doubt)	309	
